According to ChEMBL document CHEMBL1140040, “Synthesis and cytotoxic activity of some novel polycyclic gamma-butyrolactones” (Bioorg Med Chem Lett, 2008):

Legend:
COLO 205 [1] = assay: Cytotoxicity against human COLO205 cells assessed as age growth inhibition at 20 uM after 48 hrs by sulforhodamine B assay; type: functional; conditions: COLO 205, 48 h, read-out: GI
IGROV-1 [2] = assay: Cytotoxicity against human IGROV1 cells assessed as age growth inhibition at 20 uM after 48 hrs by sulforhodamine B assay; type: functional; conditions: IGROV-1, 48 h, read-out: GI
SK-OV-3 [3] = assay: Cytotoxicity against human SKOV3 cells assessed as age growth inhibition at 20 uM after 48 hrs by sulforhodamine B assay; type: functional; conditions: SK-OV-3, 48 h, read-out: GI
DU-145 [4] = assay: Cytotoxicity against human DU145 cells assessed as age growth inhibition at 20 uM after 48 hrs by sulforhodamine B assay; type: functional; conditions: DU-145, 48 h, read-out: GI
HEp-2 [5] = assay: Cytotoxicity against human HEP2 cells assessed as age growth inhibition at 20 uM after 48 hrs by sulforhodamine B assay; type: functional; conditions: HEp-2, 48 h, read-out: GI
SF-295 [6] = assay: Cytotoxicity against human SF295 cells assessed as age growth inhibition at 20 uM after 48 hrs by sulforhodamine B assay; type: functional; conditions: SF-295, 48 h, read-out: GI
A549 [7] = assay: Cytotoxicity against human A549 cells assessed as age growth inhibition at 20 uM after 48 hrs by sulforhodamine B assay; type: functional; conditions: A549, 48 h, read-out: GI
HOP-62 [8] = assay: Cytotoxicity against human HOP62 cells assessed as age growth inhibition at 20 uM after 48 hrs by sulforhodamine B assay; type: functional; conditions: HOP-62, 48 h, read-out: GI
HCT-15 [9] = assay: Cytotoxicity against human HCT15 cells assessed as age growth inhibition at 20 uM after 48 hrs by sulforhodamine B assay; type: functional; conditions: HCT-15, 48 h, read-out: GI
COLO 205 [10] = assay: Cytotoxicity against human COLO205 cells assessed as age growth inhibition at 50 uM after 48 hrs by sulforhodamine B assay; type: functional; conditions: COLO 205, 48 h, read-out: GI
COLO 205 [11] = assay: Cytotoxicity against human COLO205 cells assessed as age growth inhibition at 100 uM after 48 hrs by sulforhodamine B assay; type: functional; conditions: COLO 205, 48 h, read-out: GI
IGROV-1 [12] = assay: Cytotoxicity against human IGROV1 cells assessed as age growth inhibition at 10 uM after 48 hrs by sulforhodamine B assay; type: functional; conditions: IGROV-1, 48 h, read-out: GI
IGROV-1 [13] = assay: Cytotoxicity against human IGROV1 cells assessed as age growth inhibition at 50 uM after 48 hrs by sulforhodamine B assay; type: functional; conditions: IGROV-1, 48 h, read-out: GI
IGROV-1 [14] = assay: Cytotoxicity against human IGROV1 cells assessed as age growth inhibition at 100 uM after 48 hrs by sulforhodamine B assay; type: functional; conditions: IGROV-1, 48 h, read-out: GI
SK-OV-3 [15] = assay: Cytotoxicity against human SKOV3 cells assessed as age growth inhibition at 10 uM after 48 hrs by sulforhodamine B assay; type: functional; conditions: SK-OV-3, 48 h, read-out: GI
SK-OV-3 [16] = assay: Cytotoxicity against human SKOV3 cells assessed as age growth inhibition at 50 uM after 48 hrs by sulforhodamine B assay; type: functional; conditions: SK-OV-3, 48 h, read-out: GI
SK-OV-3 [17] = assay: Cytotoxicity against human SKOV3 cells assessed as age growth inhibition at 100 uM after 48 hrs by sulforhodamine B assay; type: functional; conditions: SK-OV-3, 48 h, read-out: GI
DU-145 [18] = assay: Cytotoxicity against human DU145 cells assessed as age growth inhibition at 10 uM after 48 hrs by sulforhodamine B assay; type: functional; conditions: DU-145, 48 h, read-out: GI
DU-145 [19] = assay: Cytotoxicity against human DU145 cells assessed as age growth inhibition at 50 uM after 48 hrs by sulforhodamine B assay; type: functional; conditions: DU-145, 48 h, read-out: GI
DU-145 [20] = assay: Cytotoxicity against human DU145 cells assessed as age growth inhibition at 100 uM after 48 hrs by sulforhodamine B assay; type: functional; conditions: DU-145, 48 h, read-out: GI
HEp-2 [21] = assay: Cytotoxicity against human HEP2 cells assessed as age growth inhibition at 10 uM after 48 hrs by sulforhodamine B assay; type: functional; conditions: HEp-2, 48 h, read-out: GI
HEp-2 [22] = assay: Cytotoxicity against human HEP2 cells assessed as age growth inhibition at 50 uM after 48 hrs by sulforhodamine B assay; type: functional; conditions: HEp-2, 48 h, read-out: GI
HEp-2 [23] = assay: Cytotoxicity against human HEP2 cells assessed as age growth inhibition at 100 uM after 48 hrs by sulforhodamine B assay; type: functional; conditions: HEp-2, 48 h, read-out: GI
SF-295 [24] = assay: Cytotoxicity against human SF295 cells assessed as age growth inhibition at 10 uM after 48 hrs by sulforhodamine B assay; type: functional; conditions: SF-295, 48 h, read-out: GI
SF-295 [25] = assay: Cytotoxicity against human SF295 cells assessed as age growth inhibition at 50 uM after 48 hrs by sulforhodamine B assay; type: functional; conditions: SF-295, 48 h, read-out: GI
SF-295 [26] = assay: Cytotoxicity against human SF295 cells assessed as age growth inhibition at 100 uM after 48 hrs by sulforhodamine B assay; type: functional; conditions: SF-295, 48 h, read-out: GI
A549 [27] = assay: Antiproliferative activity against human A549 cells after 48 hrs by sulforhodamine B assay; type: functional, cell-based; conditions: A549, 48 h
HOP-62 [28] = assay: Antiproliferative activity against human HOP62 cells after 48 hrs by sulforhodamine B assay; type: functional, cell-based; conditions: HOP-62, 48 h
HCT-15 [29] = assay: Antiproliferative activity against human HCT15 cells after 48 hrs by sulforhodamine B assay; type: functional, cell-based; conditions: HCT-15, 48 h
COLO 205 [30] = assay: Antiproliferative activity against human COLO205 cells after 48 hrs by sulforhodamine B assay; type: functional, cell-based; conditions: COLO 205, 48 h
IGROV-1 [31] = assay: Antiproliferative activity against human IGROV1 cells after 48 hrs by sulforhodamine B assay; type: functional, cell-based; conditions: IGROV-1, 48 h
SK-OV-3 [32] = assay: Antiproliferative activity against human SKOV3 cells after 48 hrs by sulforhodamine B assay; type: functional, cell-based; conditions: SK-OV-3, 48 h
DU-145 [33] = assay: Antiproliferative activity against human DU145 cells after 48 hrs by sulforhodamine B assay; type: functional, cell-based; conditions: DU-145, 48 h
HEp-2 [34] = assay: Antiproliferative activity against human HEP2 cells after 48 hrs by sulforhodamine B assay; type: functional, cell-based; conditions: HEp-2, 48 h
SF-295 [35] = assay: Antiproliferative activity against human SF295 cells after 48 hrs by sulforhodamine B assay; type: functional, cell-based; conditions: SF-295, 48 h
A549 [36] = assay: Cytotoxicity against human A549 cells assessed as age growth inhibition at 10 uM after 48 hrs by sulforhodamine B assay; type: functional; conditions: A549, 48 h, read-out: GI
A549 [37] = assay: Cytotoxicity against human A549 cells assessed as age growth inhibition at 50 uM after 48 hrs by sulforhodamine B assay; type: functional; conditions: A549, 48 h, read-out: GI
A549 [38] = assay: Cytotoxicity against human A549 cells assessed as age growth inhibition at 100 uM after 48 hrs by sulforhodamine B assay; type: functional; conditions: A549, 48 h, read-out: GI
HOP-62 [39] = assay: Cytotoxicity against human HOP62 cells assessed as age growth inhibition at 10 uM after 48 hrs by sulforhodamine B assay; type: functional; conditions: HOP-62, 48 h, read-out: GI
HOP-62 [40] = assay: Cytotoxicity against human HOP62 cells assessed as age growth inhibition at 50 uM after 48 hrs by sulforhodamine B assay; type: functional; conditions: HOP-62, 48 h, read-out: GI
HOP-62 [41] = assay: Cytotoxicity against human HOP62 cells assessed as age growth inhibition at 100 uM after 48 hrs by sulforhodamine B assay; type: functional; conditions: HOP-62, 48 h, read-out: GI
HCT-15 [42] = assay: Cytotoxicity against human HCT15 cells assessed as age growth inhibition at 10 uM after 48 hrs by sulforhodamine B assay; type: functional; conditions: HCT-15, 48 h, read-out: GI
HCT-15 [43] = assay: Cytotoxicity against human HCT15 cells assessed as age growth inhibition at 50 uM after 48 hrs by sulforhodamine B assay; type: functional; conditions: HCT-15, 48 h, read-out: GI
HCT-15 [44] = assay: Cytotoxicity against human HCT15 cells assessed as age growth inhibition at 100 uM after 48 hrs by sulforhodamine B assay; type: functional; conditions: HCT-15, 48 h, read-out: GI
COLO 205 [45] = assay: Cytotoxicity against human COLO205 cells assessed as age growth inhibition at 10 uM after 48 hrs by sulforhodamine B assay; type: functional; conditions: COLO 205, 48 h, read-out: GI

SMILES: O=c1[nH]cc(F)c(=O)[nH]1 [FLUOROURACIL]
- inhibition of growth at 20 µM (COLO 205 [1]): 27%
- inhibition of growth at 20 µM (IGROV-1 [2]): 29%
- inhibition of growth at 20 µM (SK-OV-3 [3]): 46%
- inhibition of growth at 20 µM (DU-145 [4]): 29%
- inhibition of growth at 20 µM (HEp-2 [5]): 77%
- inhibition of growth at 20 µM (SF-295 [6]): 11%
- inhibition of growth at 20 µM (A549 [7]): 57%
- inhibition of growth at 20 µM (HOP-62 [8]): 37%
- inhibition of growth at 20 µM (HCT-15 [9]): 30%

SMILES: CC1(C)CCC[C@@]2(C)C1=C[C@H]1C(=O)O[C@H](c3ccc(F)cc3)[C@H]12
- inhibition of growth at 50 µM (COLO 205 [10]): 26%
- inhibition of growth at 100 µM (COLO 205 [11]): 32%
- inhibition of growth at 10 µM (IGROV-1 [12]): 7%
- inhibition of growth at 50 µM (IGROV-1 [13]): 20%
- inhibition of growth at 100 µM (IGROV-1 [14]): 29%
- inhibition of growth at 10 µM (SK-OV-3 [15]): 6%
- inhibition of growth at 50 µM (SK-OV-3 [16]): 13%
- inhibition of growth at 100 µM (SK-OV-3 [17]): 41%
- inhibition of growth at 10 µM (DU-145 [18]): 0%
- inhibition of growth at 50 µM (DU-145 [19]): 0%
- inhibition of growth at 100 µM (DU-145 [20]): 35%
- inhibition of growth at 10 µM (HEp-2 [21]): 7%
- inhibition of growth at 50 µM (HEp-2 [22]): 13%
- inhibition of growth at 100 µM (HEp-2 [23]): 23%
- inhibition of growth at 10 µM (SF-295 [24]): 4%
- inhibition of growth at 50 µM (SF-295 [25]): 10%
- inhibition of growth at 100 µM (SF-295 [26]): 15%
- IC50 (A549 [27]): 79.3 µM
- IC50 (HOP-62 [28]): > 100 µM
- IC50 (HCT-15 [29]): > 100 µM
- IC50 (COLO 205 [30]): > 100 µM
- IC50 (IGROV-1 [31]): > 100 µM
- IC50 (SK-OV-3 [32]): > 100 µM
- IC50 (DU-145 [33]): > 100 µM
- IC50 (HEp-2 [34]): > 100 µM
- IC50 (SF-295 [35]): > 100 µM
- inhibition of growth at 10 µM (A549 [36]): 2%
- inhibition of growth at 50 µM (A549 [37]): 45%
- inhibition of growth at 100 µM (A549 [38]): 51%
- inhibition of growth at 10 µM (HOP-62 [39]): 9%
- inhibition of growth at 50 µM (HOP-62 [40]): 14%
- inhibition of growth at 100 µM (HOP-62 [41]): 27%
- inhibition of growth at 10 µM (HCT-15 [42]): 13%
- inhibition of growth at 50 µM (HCT-15 [43]): 34%
- inhibition of growth at 100 µM (HCT-15 [44]): 38%
- inhibition of growth at 10 µM (COLO 205 [45]): 11%
